Test results published in paper PMC9681820, “A PDE10A inhibitor CPL500036 is a novel agent modulating striatal function devoid of most neuroleptic side-effects” (Frontiers in Pharmacology, 2022).

Experiments:
5-HT transporter = target: T1, 5-HT transporter (Homo sapiens, UniProt P31645); experiment: SafetyScreen44 radioligand binding; conditions: read-out: % Inh (% inhibition of control specific binding)
T1 construct: purchased Eurofins Cerep (SafetyScreen44)
Procedure: (§1) The SafetyScreen44® assay was carried out by Eurofins (Poitiers, France) according to the service-provider’s protocol. CPL500036 (1 µM) was tested against a panel of […] potential off-targets proteins, including G protein-coupled receptors (GPCRs), transporters, ion channels, nuclear receptors kinases and other non-kinase enzymes, by use of a set of the binding assays.
(§2) Binding of CPL500036 was calculated as the percent binding inhibition of a radioactively labeled ligand specific for each target. Enzyme inhibition of CPL500036 was calculated as the percent inhibition of the activity of the control enzyme. “No interaction” was denoted if inhibition ≤ 25% of specific binding of the control. Determination of muscarinic acetylcholine receptor (M2) activity induced by CPL500036 (antagonism and agonism) was undertaken in human recombinant CHO cells by measurement of the intracellular cAMP level according to the service-provider’s protocol. IC50 (concentration causing a half-maximal inhibition of specific binding of the control) or EC50 (concentration causing a half-maximal response of specific binding of the control) and the Hill coefficient were determined by non-linear regression analysis of the competition curves generated with mean replicate values using Hill-equation curve fitting with software developed at Cerep (Celle-Lévescault, France).

Endothelin receptor = target: T2, Endothelin receptor (Homo sapiens, UniProt P25101); experiment: SafetyScreen44 radioligand binding; conditions: agonist radioligand, read-out: % Inh (% inhibition of control specific binding)
T2 construct: purchased Eurofins Cerep (SafetyScreen44)
Procedure: as §1, §2

Monoamine oxidase A = target: T3, Monoamine oxidase A (Rattus norvegicus, UniProt P21396); experiment: SafetyScreen44 radioligand binding; conditions: read-out: % Inh (% inhibition of control specific binding)
T3 construct: purchased Eurofins Cerep (SafetyScreen44)
Procedure: as §1, §2

adenosine A2A receptor = target: T4, adenosine A2A receptor (Homo sapiens, UniProt P29274); experiment: SafetyScreen44 radioligand binding; conditions: agonist radioligand, read-out: % Inh (% inhibition of control specific binding)
T4 construct: purchased Eurofins Cerep (SafetyScreen44)
Procedure: as §1, §2

[1] = target: T5, alpha-1A adrenergic receptor (Homo sapiens, UniProt P35348); experiment: SafetyScreen44 radioligand binding; conditions: read-out: % Inh (% inhibition of control specific binding)
T5 construct: purchased Eurofins Cerep (SafetyScreen44)
Procedure: as §1, §2

[2] = target: T6, alpha-2A adrenergic receptor (Homo sapiens, UniProt P08913); experiment: SafetyScreen44 radioligand binding; conditions: read-out: % Inh (% inhibition of control specific binding)
T6 construct: purchased Eurofins Cerep (SafetyScreen44)
Procedure: as §1, §2

androgen receptor = target: T7, androgen receptor (Homo sapiens, UniProt P10275, T878A); experiment: SafetyScreen44 radioligand binding; conditions: agonist radioligand, read-out: % Inh (% inhibition of control specific binding)
T7 construct: purchased Eurofins Cerep (SafetyScreen44)
Procedure: as §1, §2

[3] = target: T8, beta-1 adrenergic receptor (Homo sapiens, UniProt P08588); experiment: SafetyScreen44 radioligand binding; conditions: agonist radioligand, read-out: % Inh (% inhibition of control specific binding)
T8 construct: purchased Eurofins Cerep (SafetyScreen44)
Procedure: as §1, §2

[4] = target: T9, beta-2 adrenergic receptor (Homo sapiens, UniProt P07550); experiment: SafetyScreen44 radioligand binding; conditions: agonist radioligand, read-out: % Inh (% inhibition of control specific binding)
T9 construct: purchased Eurofins Cerep (SafetyScreen44)
Procedure: as §1, §2

[5] = target: T10, cannabinoid receptor type 1 (Homo sapiens, UniProt P21554); experiment: SafetyScreen44 radioligand binding; conditions: agonist radioligand, read-out: % Inh (% inhibition of control specific binding)
T10 construct: purchased Eurofins Cerep (SafetyScreen44)
Procedure: as §1, §2

[6] = target: T11, cannabinoid receptor type 2 (Homo sapiens, UniProt P34972); experiment: SafetyScreen44 radioligand binding; conditions: agonist radioligand, read-out: % Inh (% inhibition of control specific binding)
T11 construct: purchased Eurofins Cerep (SafetyScreen44)
Procedure: as §1, §2

[7] = target: T12, cholecystokinin A receptor (Homo sapiens, UniProt P32238); experiment: SafetyScreen44 radioligand binding; conditions: agonist radioligand, read-out: % Inh (% inhibition of control specific binding)
T12 construct: purchased Eurofins Cerep (SafetyScreen44)
Procedure: as §1, §2

dopamine receptor type 1 = target: T13, dopamine receptor type 1 (Homo sapiens, UniProt P21728); experiment: SafetyScreen44 radioligand binding; conditions: read-out: % Inh (% inhibition of control specific binding)
T13 construct: purchased Eurofins Cerep (SafetyScreen44)
Procedure: as §1, §2

dopamine receptor type 2 = target: T14, dopamine receptor type 2 (Homo sapiens, UniProt P14416); experiment: SafetyScreen44 radioligand binding; conditions: agonist radioligand, read-out: % Inh (% inhibition of control specific binding)
T14 construct: purchased Eurofins Cerep (SafetyScreen44)
Procedure: as §1, §2

dopamine transporter = target: T15, dopamine transporter (Homo sapiens, UniProt Q01959); experiment: SafetyScreen44 radioligand binding; conditions: read-out: % Inh (% inhibition of control specific binding)
T15 construct: purchased Eurofins Cerep (SafetyScreen44)
Procedure: as §1, §2

glucocorticoid receptor = target: T16, glucocorticoid receptor (Homo sapiens, UniProt P04150); experiment: SafetyScreen44 radioligand binding; conditions: agonist radioligand, read-out: % Inh (% inhibition of control specific binding)
T16 construct: purchased Eurofins Cerep (SafetyScreen44)
Procedure: as §1, §2

[8] = target: T17, histamine receptor type 1 (Homo sapiens, UniProt P35367); experiment: SafetyScreen44 radioligand binding; conditions: read-out: % Inh (% inhibition of control specific binding)
T17 construct: purchased Eurofins Cerep (SafetyScreen44)
Procedure: as §1, §2

[9] = target: T18, muscarinic acetylcholine receptor type 1 (Homo sapiens, UniProt P11229); experiment: SafetyScreen44 radioligand binding; conditions: read-out: % Inh (% inhibition of control specific binding)
T18 construct: purchased Eurofins Cerep (SafetyScreen44)
Procedure: as §1, §2

[10] = target: T19, norepinephrine transporter (Homo sapiens, UniProt P23975); experiment: SafetyScreen44 radioligand binding; conditions: read-out: % Inh (% inhibition of control specific binding)
T19 construct: purchased Eurofins Cerep (SafetyScreen44)
Procedure: as §1, §2

[11] = target: T20, potassium voltage-gated channel subfamily H member 2 (hERG) (Homo sapiens, UniProt Q12809); experiment: SafetyScreen44 radioligand binding; conditions: read-out: % Inh (% inhibition of control specific binding)
T20 construct: purchased Eurofins Cerep (SafetyScreen44)
Procedure: as §1, §2

serotonin receptor 1A = target: T21, serotonin receptor 1A (Homo sapiens, UniProt P08908); experiment: SafetyScreen44 radioligand binding; conditions: agonist radioligand, read-out: % Inh (% inhibition of control specific binding)
T21 construct: purchased Eurofins Cerep (SafetyScreen44)
Procedure: as §1, §2

serotonin receptor 1B = target: T22, serotonin receptor 1B (Rattus norvegicus, UniProt P28564); experiment: SafetyScreen44 radioligand binding; conditions: read-out: % Inh (% inhibition of control specific binding)
T22 construct: purchased Eurofins Cerep (SafetyScreen44)
Procedure: as §1, §2

serotonin receptor 2B = target: T23, serotonin receptor 2B (Homo sapiens, UniProt P41595); experiment: SafetyScreen44 radioligand binding; conditions: agonist radioligand, read-out: % Inh (% inhibition of control specific binding)
T23 construct: purchased Eurofins Cerep (SafetyScreen44)
Procedure: as §1, §2

serotonin receptor 3 = target: T24, serotonin receptor 3 (Homo sapiens, UniProt P46098); experiment: SafetyScreen44 radioligand binding; conditions: read-out: % Inh (% inhibition of control specific binding)
T24 construct: purchased Eurofins Cerep (SafetyScreen44)
Procedure: as §1, §2

vasopressin receptor = target: T25, vasopressin receptor (Homo sapiens, UniProt P37288); experiment: SafetyScreen44 radioligand binding; conditions: agonist radioligand, read-out: % Inh (% inhibition of control specific binding)
T25 construct: purchased Eurofins Cerep (SafetyScreen44)
Procedure: as §1, §2

µ -type opioid receptor = target: T26, µ -type opioid receptor (Homo sapiens, UniProt P35372); experiment: SafetyScreen44 radioligand binding; conditions: agonist radioligand, read-out: % Inh (% inhibition of control specific binding)
T26 construct: purchased Eurofins Cerep (SafetyScreen44)
Procedure: as §1, §2

MTT cytotoxicity assay = type: cell-based; conditions: human, n = 3
Procedure: The cytotoxicity of CPL500036 was evaluated in human non-small-cell lung cancer (NCI-H1299, ATCC® CRL-5803™), human hepatocellular carcinoma (Hep G2 [HEPG2], ATCC® HB-8065™) and human neuroblastoma (SH-SY5Y, ECACC, 94030304) cells using the 3-(4,5-dimethylthiazol-2-yl)-2,5-diphenyltetrazolium bromide (MTT) assay (Invitrogen, Carlsbad, CA, United States). Cells were seeded in an appropriate complete growth medium (following manufacturer recommendations) onto 96-well plates. After overnight incubation (37°C, 5% CO2) the medium was replaced with fresh medium (100 μl/well) containing the desired concentration of CPL500036 (8 nM–60 μM, diluent factor = 3), positive control or vehicle control (1% dimethyl sulfoxide (DMSO)) followed by incubation for 72 h (37°C, 5% CO2). Then, 25 μl of filtered (filter size = 0.22 μm) MTT solution (12 mM) in phosphate-buffered saline (PBS) was added to each well, including blank control (medium without cells) followed by incubation for 2 h (37°C, 5% CO2). After that, formazan crystals were dissolved in DMSO (100 μl/well). The absorbance was measured at 540 nm (A540, substrate wavelength) and 690 nm (A690, reference wavelength) using an automatic microplate reader (Multiskan™ GO; ThermoFisher Scientific). The metabolic activity of cells in the presence of vehicle control (1% DMSO) was considered to be 100%, and we calculated the difference between A540 and A690. IC50 was calculated using Prism 7.05.

T22 sequence (P28564 whole entry): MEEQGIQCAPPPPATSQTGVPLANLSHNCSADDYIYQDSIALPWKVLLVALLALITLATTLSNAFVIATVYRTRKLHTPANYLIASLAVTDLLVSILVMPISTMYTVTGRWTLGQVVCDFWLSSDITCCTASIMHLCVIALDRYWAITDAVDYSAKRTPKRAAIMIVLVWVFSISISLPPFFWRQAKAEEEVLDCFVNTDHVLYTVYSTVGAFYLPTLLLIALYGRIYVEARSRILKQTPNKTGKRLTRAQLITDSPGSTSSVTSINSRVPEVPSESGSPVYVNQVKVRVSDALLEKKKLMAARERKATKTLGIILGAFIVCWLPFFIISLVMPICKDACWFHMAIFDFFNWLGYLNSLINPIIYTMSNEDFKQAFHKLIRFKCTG
T2 sequence (P25101 21-427): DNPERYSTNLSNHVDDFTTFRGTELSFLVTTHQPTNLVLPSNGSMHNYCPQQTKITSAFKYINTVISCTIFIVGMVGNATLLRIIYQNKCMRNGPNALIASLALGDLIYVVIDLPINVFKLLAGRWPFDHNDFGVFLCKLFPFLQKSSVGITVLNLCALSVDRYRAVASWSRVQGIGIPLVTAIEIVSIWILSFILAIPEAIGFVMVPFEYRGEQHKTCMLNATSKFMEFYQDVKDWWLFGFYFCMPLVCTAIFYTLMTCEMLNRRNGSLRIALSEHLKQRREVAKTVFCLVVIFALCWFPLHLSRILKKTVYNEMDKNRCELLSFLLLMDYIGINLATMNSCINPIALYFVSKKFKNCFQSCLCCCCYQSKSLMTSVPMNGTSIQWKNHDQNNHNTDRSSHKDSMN
T26 sequence (P35372 whole entry): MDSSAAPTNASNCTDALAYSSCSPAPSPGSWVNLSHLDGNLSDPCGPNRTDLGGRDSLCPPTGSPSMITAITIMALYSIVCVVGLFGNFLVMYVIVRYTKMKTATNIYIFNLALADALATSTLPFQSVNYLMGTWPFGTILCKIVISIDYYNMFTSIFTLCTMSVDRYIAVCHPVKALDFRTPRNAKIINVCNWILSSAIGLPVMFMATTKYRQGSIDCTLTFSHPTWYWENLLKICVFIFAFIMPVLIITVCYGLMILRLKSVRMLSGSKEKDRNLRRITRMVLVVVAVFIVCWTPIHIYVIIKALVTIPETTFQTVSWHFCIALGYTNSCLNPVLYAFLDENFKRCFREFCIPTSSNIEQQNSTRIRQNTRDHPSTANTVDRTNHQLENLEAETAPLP
T9 sequence (P07550 whole entry): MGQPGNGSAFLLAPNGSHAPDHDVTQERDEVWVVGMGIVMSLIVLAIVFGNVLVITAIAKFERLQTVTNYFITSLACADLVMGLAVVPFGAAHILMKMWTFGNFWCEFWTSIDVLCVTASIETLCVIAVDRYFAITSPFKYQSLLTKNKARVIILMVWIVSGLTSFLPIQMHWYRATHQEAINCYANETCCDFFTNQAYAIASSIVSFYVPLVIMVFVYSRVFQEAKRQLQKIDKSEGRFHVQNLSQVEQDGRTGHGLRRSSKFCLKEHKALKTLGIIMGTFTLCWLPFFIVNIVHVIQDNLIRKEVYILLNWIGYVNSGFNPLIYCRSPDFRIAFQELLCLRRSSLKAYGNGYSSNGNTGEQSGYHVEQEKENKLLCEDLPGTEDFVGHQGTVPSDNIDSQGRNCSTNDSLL
T4 sequence (P29274 whole entry): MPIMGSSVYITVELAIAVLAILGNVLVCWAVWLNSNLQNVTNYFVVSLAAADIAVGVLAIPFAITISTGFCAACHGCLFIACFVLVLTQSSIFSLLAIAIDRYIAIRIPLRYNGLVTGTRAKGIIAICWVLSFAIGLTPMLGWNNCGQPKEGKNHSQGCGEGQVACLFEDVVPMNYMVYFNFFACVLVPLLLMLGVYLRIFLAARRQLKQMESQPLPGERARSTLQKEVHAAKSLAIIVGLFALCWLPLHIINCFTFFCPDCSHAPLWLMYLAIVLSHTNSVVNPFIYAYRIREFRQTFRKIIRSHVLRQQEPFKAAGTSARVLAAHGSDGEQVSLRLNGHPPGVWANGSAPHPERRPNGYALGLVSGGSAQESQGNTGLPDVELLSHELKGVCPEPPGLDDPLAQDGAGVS
T15 sequence (Q01959 whole entry): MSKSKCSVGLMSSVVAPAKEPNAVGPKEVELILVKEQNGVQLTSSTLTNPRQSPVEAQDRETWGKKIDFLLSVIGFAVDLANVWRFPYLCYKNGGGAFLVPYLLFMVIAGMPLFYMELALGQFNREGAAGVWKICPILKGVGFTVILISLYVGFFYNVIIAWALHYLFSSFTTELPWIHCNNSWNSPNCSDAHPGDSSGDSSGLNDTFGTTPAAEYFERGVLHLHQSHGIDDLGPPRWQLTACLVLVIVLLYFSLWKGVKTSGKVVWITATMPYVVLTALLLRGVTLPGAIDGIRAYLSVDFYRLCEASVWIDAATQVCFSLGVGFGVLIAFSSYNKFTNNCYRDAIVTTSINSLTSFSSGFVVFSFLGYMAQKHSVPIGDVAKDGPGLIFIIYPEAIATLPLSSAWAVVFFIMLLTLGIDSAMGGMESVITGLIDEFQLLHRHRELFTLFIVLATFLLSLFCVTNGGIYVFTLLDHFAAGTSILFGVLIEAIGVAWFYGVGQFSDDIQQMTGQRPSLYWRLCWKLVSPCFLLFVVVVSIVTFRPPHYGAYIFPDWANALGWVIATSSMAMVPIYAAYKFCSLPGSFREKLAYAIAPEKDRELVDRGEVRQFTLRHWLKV
T25 sequence (P37288 whole entry): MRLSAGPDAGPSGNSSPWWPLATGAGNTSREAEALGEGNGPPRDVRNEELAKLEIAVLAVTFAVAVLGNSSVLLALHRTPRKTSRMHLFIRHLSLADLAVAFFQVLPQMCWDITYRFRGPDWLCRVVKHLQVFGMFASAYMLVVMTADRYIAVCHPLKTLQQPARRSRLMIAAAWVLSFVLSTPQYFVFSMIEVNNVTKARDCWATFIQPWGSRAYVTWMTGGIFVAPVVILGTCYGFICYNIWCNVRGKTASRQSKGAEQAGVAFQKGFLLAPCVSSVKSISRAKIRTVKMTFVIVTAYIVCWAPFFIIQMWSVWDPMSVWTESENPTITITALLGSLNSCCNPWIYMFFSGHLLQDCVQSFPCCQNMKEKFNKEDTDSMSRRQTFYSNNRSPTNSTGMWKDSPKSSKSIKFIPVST
T17 sequence (P35367 whole entry): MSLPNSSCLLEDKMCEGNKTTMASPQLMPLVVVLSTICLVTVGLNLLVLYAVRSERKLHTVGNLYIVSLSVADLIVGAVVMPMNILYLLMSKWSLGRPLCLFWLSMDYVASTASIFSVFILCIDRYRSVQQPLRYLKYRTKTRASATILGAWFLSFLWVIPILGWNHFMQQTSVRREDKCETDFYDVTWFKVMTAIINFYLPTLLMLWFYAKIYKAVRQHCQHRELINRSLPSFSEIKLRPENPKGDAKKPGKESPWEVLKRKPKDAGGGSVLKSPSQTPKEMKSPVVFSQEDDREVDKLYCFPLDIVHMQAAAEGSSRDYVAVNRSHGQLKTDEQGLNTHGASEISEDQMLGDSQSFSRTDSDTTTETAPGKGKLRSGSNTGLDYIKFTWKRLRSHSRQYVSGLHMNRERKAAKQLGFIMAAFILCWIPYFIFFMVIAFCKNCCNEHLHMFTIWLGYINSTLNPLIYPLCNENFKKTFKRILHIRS
T14 sequence (P14416 whole entry): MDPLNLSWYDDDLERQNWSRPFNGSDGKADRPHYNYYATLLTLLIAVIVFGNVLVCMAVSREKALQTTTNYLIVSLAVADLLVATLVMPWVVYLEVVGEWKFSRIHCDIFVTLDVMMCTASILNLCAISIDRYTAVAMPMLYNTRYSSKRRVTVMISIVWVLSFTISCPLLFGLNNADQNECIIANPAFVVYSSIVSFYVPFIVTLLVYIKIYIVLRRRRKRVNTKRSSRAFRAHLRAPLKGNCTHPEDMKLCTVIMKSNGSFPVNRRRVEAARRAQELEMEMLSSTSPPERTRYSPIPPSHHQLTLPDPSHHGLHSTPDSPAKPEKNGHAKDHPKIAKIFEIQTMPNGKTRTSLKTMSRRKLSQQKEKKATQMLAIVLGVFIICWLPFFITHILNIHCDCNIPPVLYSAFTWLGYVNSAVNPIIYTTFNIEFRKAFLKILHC
T3 sequence (P21396 whole entry): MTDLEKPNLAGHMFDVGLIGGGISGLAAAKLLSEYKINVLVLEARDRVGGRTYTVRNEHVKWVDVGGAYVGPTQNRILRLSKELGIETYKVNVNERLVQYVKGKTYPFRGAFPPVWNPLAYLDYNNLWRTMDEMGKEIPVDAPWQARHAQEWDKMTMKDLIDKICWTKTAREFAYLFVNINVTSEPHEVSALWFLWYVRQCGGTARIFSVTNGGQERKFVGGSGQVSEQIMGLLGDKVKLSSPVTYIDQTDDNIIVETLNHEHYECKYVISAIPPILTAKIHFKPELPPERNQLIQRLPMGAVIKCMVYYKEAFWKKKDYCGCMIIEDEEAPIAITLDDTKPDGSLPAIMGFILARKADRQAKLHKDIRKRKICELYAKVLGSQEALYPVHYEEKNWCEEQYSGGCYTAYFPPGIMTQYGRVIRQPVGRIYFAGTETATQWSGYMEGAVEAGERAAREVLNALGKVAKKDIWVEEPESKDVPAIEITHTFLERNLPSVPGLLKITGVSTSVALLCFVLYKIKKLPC
T12 sequence (P32238 whole entry): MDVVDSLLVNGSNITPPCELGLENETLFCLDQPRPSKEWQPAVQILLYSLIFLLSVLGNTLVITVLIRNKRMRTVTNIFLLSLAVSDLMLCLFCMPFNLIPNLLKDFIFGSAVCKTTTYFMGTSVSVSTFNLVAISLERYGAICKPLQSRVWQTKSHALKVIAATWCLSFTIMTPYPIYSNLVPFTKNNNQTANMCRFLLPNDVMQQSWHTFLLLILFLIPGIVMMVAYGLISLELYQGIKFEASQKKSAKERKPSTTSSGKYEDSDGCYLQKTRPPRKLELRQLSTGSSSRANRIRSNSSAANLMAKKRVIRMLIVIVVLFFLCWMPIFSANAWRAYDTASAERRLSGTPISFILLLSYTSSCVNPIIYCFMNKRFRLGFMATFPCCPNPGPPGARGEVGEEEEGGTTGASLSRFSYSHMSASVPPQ

Cc1ncc(C)n2nc(-c3ccn4cc(-c5ccccc5)nc4n3)nc12 [CPL500036, 7-[5,8-Dimethyl-(1,2,4)triazolo (1,5-a)pyrazin-2-yl]-2-phenylimidazo (1,2-a) pyrimidine]
inhibition at 1 µM (5-HT transporter): -9.5% | inhibition at 1 µM (Endothelin receptor): -16.8% | inhibition at 1 µM (Monoamine oxidase A): 1% | inhibition at 1 µM (adenosine A2A receptor): -8.1% | inhibition at 1 µM [1]: 1.8% | inhibition at 1 µM [2]: 0.4% | inhibition at 1 µM (androgen receptor): 5.3% | inhibition at 1 µM [3]: 1.1% | inhibition at 1 µM [4]: 8.2% | inhibition at 1 µM [5]: 8.8% | inhibition at 1 µM [6]: -14.6% | inhibition at 1 µM [7]: -8.2% | inhibition at 1 µM (dopamine receptor type 1): -8.2% | inhibition at 1 µM (dopamine receptor type 2): -14.4% | inhibition at 1 µM (dopamine transporter): -6.9% | inhibition at 1 µM (glucocorticoid receptor): -3.2% | inhibition at 1 µM [8]: -14.6% | inhibition at 1 µM [9]: -19.7% | inhibition at 1 µM [10]: -14.5% | inhibition at 1 µM [11]: -19.6% | inhibition at 1 µM (serotonin receptor 1A): 5.4% | inhibition at 1 µM (serotonin receptor 1B): -7.3% | inhibition at 1 µM (serotonin receptor 2B): 10.6% | inhibition at 1 µM (serotonin receptor 3): -5.7% | inhibition at 1 µM (vasopressin receptor): -0.8% | inhibition at 1 µM (µ -type opioid receptor): -1.1% | IC50 at 72 h (MTT cytotoxicity assay; HepG2 cells, HepG2, 72 h): > 60 µM | IC50 at 72 h (MTT cytotoxicity assay; NCI-H1299 cells, H1299, 72 h): > 60 µM | IC50 at 72 h (MTT cytotoxicity assay; SH-SY5Y cells): > 60 µM
